Peptide text beside a SMILES is read from it.
Target: MARK2 (Homo sapiens, UniProt Q7KZI7)
Test: Validation of tR1 as a substrate for MARK2 (western blot, α-pTau Ser262)
Type: biochemical
Details: ATP, 60 minutes at 32° C.
Text: Once an otherwise competent kinase-substrate pair was developed for a working phosphorylation assay, tR1 was validated as a substrate for MARK2. The tR1 peptide (NVKSKIGSTENLK [SEQ ID NO: 1]) was synthesized using standard Fmoc-based solid-phase synthesis procedures and the final sequence was either acylated (tR1) or labeled with 5-carboxyfluorescein (tR1) on its N-terminus (FIG. 6A). See the experimental procedures, below, for details on the synthesis, labeling, purification and characterization of tR1 peptides. To evaluate whether tR1 is recognized as a substrate by MARK2, MARK2 was incubated with ATP in the presence of varying concentrations of tR1 peptide for 60 minutes at 32° C. in phosphorylation buffer. Following incubation, phosphorylated tR1 peptides were separated by SDS-PAGE and identified by Western blot using antibodies specific for hTau pSer262 (FIG. 6B). Western blot analysis confirmed tR1 as a substrate of MARK2 by the presence of a sharp band at the highest concentration (100 μM).
Phosphorylation assays were performed in 30 μL phosphorylation buffer (50 mM Tris-HCl, 5 mM MgCl2, 2 mM EGTA, 0.5 mM DTT, 0.5 mM benzamidine HCl, 0.5 mM PMSF, pH 8.0) and depending on the experimental conditions. […] Images were acquired by a Bio-Rad Gel Doc EZ imager and the band intensity was quantified using Image Lab Software c5.2.1 (Bio-Rad).

Sequence of MARK2 (Q7KZI7 whole entry): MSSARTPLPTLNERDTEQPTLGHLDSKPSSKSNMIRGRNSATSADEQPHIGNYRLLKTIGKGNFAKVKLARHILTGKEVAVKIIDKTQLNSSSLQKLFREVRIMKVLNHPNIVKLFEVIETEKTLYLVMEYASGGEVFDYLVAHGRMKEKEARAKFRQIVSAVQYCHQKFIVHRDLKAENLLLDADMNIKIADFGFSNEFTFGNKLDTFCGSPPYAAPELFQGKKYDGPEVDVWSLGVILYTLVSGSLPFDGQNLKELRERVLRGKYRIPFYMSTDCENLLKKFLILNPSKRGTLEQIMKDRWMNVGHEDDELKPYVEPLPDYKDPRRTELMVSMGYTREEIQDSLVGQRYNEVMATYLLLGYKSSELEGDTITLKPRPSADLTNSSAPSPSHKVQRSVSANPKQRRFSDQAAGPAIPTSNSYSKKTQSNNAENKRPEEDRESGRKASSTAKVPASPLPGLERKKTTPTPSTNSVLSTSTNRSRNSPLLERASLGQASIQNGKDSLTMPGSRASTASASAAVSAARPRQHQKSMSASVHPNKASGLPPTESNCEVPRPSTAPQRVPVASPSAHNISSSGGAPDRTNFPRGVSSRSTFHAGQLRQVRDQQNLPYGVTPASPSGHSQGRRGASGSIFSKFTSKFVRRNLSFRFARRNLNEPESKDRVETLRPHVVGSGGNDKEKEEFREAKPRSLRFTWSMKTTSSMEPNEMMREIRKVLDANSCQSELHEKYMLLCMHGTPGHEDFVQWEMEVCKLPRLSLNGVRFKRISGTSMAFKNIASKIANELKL

Q: With CC[C@H](C)[C@H](NC(=O)[C@H](CCCCN)NC(=O)[C@H](CO)NC(=O)[C@H](CCCCN)NC(=O)[C@@H](NC(=O)[C@H](CC(N)=O)NC(C)=O)C(C)C)C(=O)NCC(=O)N[C@@H](CO)C(=O)N[C@H](C(=O)N[C@@H](CCC(=O)O)C(=O)N[C@@H](CC(N)=O)C(=O)N[C@@H](CC(C)C)C(=O)N[C@@H](CCCCN)C(N)=O)[C@@H](C)O [tR1, NVKSKIGSTENLK] (Ac-NVKSKIGSTENLK-NH2) as the compound, how does the “phosphorylation of tR1 by MARK2 (western blot)” value (0, 1, or 10 μM peptide) read?
A: Phosphorylation was not seen

Q: What about the “phosphorylation of tR1 by MARK2 (western blot)” value (100 μM peptide) of the same compound?
A: sharp band
